Source: US6472389B1, “Pyrrolo[1,2-b] pyridazine derivatives having sPLA2 inhibitory effect” (Shionogi & Co., Ltd., priority 1998, dated 2002)

Columns and labels:
[1] = molecular target: T1, recombinant human secretory phospholipase A2 (Homo sapiens, UniProt P14555); assay: Inhibition test of human secretory phospholipase A2 (chromogenic assay, 96 well microtiterplate); type: biochemical; settings: sPLA2 50 ng/well, 40° C., 30 minutes, OD 405 nm, substrate 1,2-bis(heptanoylthio)-1,2-dideoxy-sn-glycero-3-phospholylcholine
T1 sequence (P14555 21-144): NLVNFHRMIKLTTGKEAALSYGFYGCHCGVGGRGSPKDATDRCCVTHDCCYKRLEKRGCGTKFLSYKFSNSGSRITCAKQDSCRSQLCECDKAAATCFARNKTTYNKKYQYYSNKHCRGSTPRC
Text: Inhibition Test of Human Secretory Phospholipase A2
In order to identify and evaluate an inhibitor of recombinant human secretory phospholipase A2, the following chromogenic assay is utilized. The assay herein has been applied for high volume screening wherein 96 well microtiterplate is used. A general explanation for such assay is described in “Analysis of Human Synovial Fluid Phospholipase A2 on Short Chain Phosphatidylcholine-Mixed Micelles: Development of a Spectrophotometric Assay Suitable for a Micortiterplate Reader” (Analytical Biochemistry, 204, pp 190-197, 1992 by Laure. J. Reynolds. Lori L. Hughes and Edward A. Dennis: the disclosure of which is incorporated herein for reference.
Bovine Serum Albumin (fatty acid free) (1 g/L) (Sigma A-7030)
pH 7.5 (adjusted with NaOH)
pH 4.5 (adjusted with acetic acid)
1 mg of sPLA2 is dissolved in 1 ml of an enzyme buffer. Thereafter, the solution is maintained at 4° C.
In the assay, 5 μl of the solution is diluted with 1995 μl of the reaction buffer to be used.
198 mg of 5,5′-dithiobis-2-[…] (manufactured by Wako Pure Chemicals) is dissolved in 100 ml of H2O
100 mg of racemic 1,2-bis(heptanoylthio)-1,2-dideoxy-sn-glycero-3-phospholylcholine is dissolved in 1 ml of chloroform.
624.9 mg of Triton-X 100 is dissolved in the reaction buffer.
Enzyme Reaction: for 1 plate of Microtiterplate
1) 0.106 ml of the substrate solution is put in a centrifugal tube, and nitrogen gas is jetted to remove the solvent. 0.54 ml of Triton-X 100 is added thereto, the mixture is stirred, thereafter it is sonified in a bath type sonification to dissolve. To the resulting product are added 17.8 m1l of the reaction buffer and 0.46 ml of DTNB, and 0.18 ml each of the admixture is poured to wells of the 96 well microtiterplate.
2) 10 μl of a test compound (or solvent blank) are added in accordance with alignment of plates which has been previously set.
3) Incubation is effected at 40° C. for 15 minutes.
4) 20 μl of an enzyme solution (sPLA2) which has been previously diluted (50 ng/well) are added to start reaction (40° C., 30 minutes).
5) Changes in absorbancy for 30 minutes are measured by a plate reader, and inhibition activity was calculated (OD: 405 nm).
6) IC50 was determined by plotting log concentration with respect to inhibition values within 10% to 90% inhibiting range.

With `CCc1c(C(=O)C(N)=O)c2c(OCC(=O)OC)ccnn2c1Cc1ccccc1` [Compound I-1, Methyl (5-aminooxalyl-7-benzyl-6-ethylpyrrolo[1,2-b]pyridazine-4-yloxy)acetate] the IC50 [1] was 248 nM and the melting point was 210 to 212 °C.

With `CCc1c(C(=O)C(N)=O)c2c(OCC(=O)O)ccnn2c1Cc1ccccc1` [Compound I-2, (5-aminooxalyl-7-benzyl-6-ethylpyrrolo[1,2-b]pyridazine-4-yloxy)acetic acid] the IC50 [1] was 9 nM.

Work on `CCc1c(C(=O)C(N)=O)c2c(OCC(=O)O)ccnn2c1Cc1ccccc1` [Compound I-3, Sodium (5-aminooxalyl-7-benzyl-6-ethylpyrrolo[1,2-b]pyridazine-4-yloxy)acetate] yielded an IC50 [1] of 13 nM.

Work on `CCc1c(C(=O)C(N)=O)c2c(OCC(=O)OC)cc(C)nn2c1Cc1ccccc1` [Compound I-4, Methyl (5-aminooxalyl-7-benzyl-6-ethyl-2-methylpyrrolo[1,2-b]pyridazine-4-yloxy)acetate] yielded an IC50 [1] of 150 nM and a melting point of 225 to 226 °C.

`CCc1c(C(=O)C(N)=O)c2c(OCC(=O)O)cc(C)nn2c1Cc1ccccc1` [Compound I-5, (5-aminooxalyl-7-benzyl-6-ethyl-2-methylpyrrolo[1,2-b]pyridazine-4-yloxy)acetic acid] gave an IC50 [1] of 11 nM.

Work on `CCc1c(C(=O)C(N)=O)c2c(OCC(=O)OC)cc(COc3ccccc3)nn2c1Cc1ccccc1` [Compound I-6, Methyl (5-aminooxalyl-7-benzyl-6-ethyl-2-phenoxymethylpyrrolo[1,2-b]pyridazine-4-yloxy)acetate] yielded an IC50 [1] of 238 nM and a melting point of 185 to 186 °C.

Work on `CCc1c(C(=O)C(N)=O)c2c(OCC(=O)OC)cc(COc3ccc(F)cc3)nn2c1Cc1ccccc1` [Compound I-7] yielded an IC50 [1] of 223 nM and a melting point of 178 to 179 °C.

With `CCc1cc(OCC(=O)OC)c2c(C(=O)C(N)=O)c(CC)c(Cc3ccccc3)n2n1` [Compound I-8] the IC50 [1] was 184 nM and the melting point was 183 to 185 °C.

In the case of `CCCc1cc(OCC(=O)OC)c2c(C(=O)C(N)=O)c(CC)c(Cc3ccccc3)n2n1` [Compound I-9], the IC50 [1] is reported as 165 nM and the melting point is reported as 204 to 206 °C.

With `CCc1c(C(=O)C(N)=O)c2c(OCC(=O)OC)cc(C(C)C)nn2c1Cc1ccccc1` [Compound I-10] the IC50 [1] was 296 nM and the melting point was 174 to 175 °C.

For `CCc1c(C(=O)C(N)=O)c2c(OCC(=O)OC)cc(-c3ccccc3)nn2c1Cc1ccccc1` [Compound I-11], the IC50 [1] was 67 nM and the melting point was 236 to 239 °C.

`CCc1c(C(=O)C(N)=O)c2c(OCC(=O)OC)cc(C)nn2c1Cc1ccc(F)cc1` [Compound I-12] showed an IC50 [1] of 745 nM and a melting point of 252 to 254 °C.

For `CCc1c(C(=O)C(N)=O)c2c(OCC(=O)OC)cc(-c3ccccc3)nn2c1Cc1ccc(F)cc1` [Compound I-13], the IC50 [1] was 238 nM and the melting point was 253 to 255 °C.

For `CCc1c(C(=O)C(N)=O)c2c(OCC(=O)OC)cc(C(F)(F)F)nn2c1Cc1ccc(F)cc1` [Compound I-14], the IC50 [1] was 883 nM and the melting point was 200 to 202 °C.

With `CCc1c(C(=O)C(N)=O)c2c(OCC(=O)OC)cc(-c3ccccc3)nn2c1Cc1ccccc1F` [Compound I-15] the IC50 [1] was 97 nM and the melting point was 244 to 246 °C.

In the case of `Cc1cc(OCC(=O)O)c2c(C(=O)C(N)=O)c(C)c(Cc3ccccc3)n2n1` [Compound I-16], the IC50 [1] is reported as 12 nM and the melting point is reported as 271 to 272 °C (dec.).

For `Cc1c(C(=O)C(N)=O)c2c(OCC(=O)O)cc(-c3ccccc3)nn2c1Cc1ccccc1` [Compound I-17], the IC50 [1] was 7 nM and the melting point was 253 to 254 °C (dec.).

In the case of `CCc1cc(OCC(=O)O)c2c(C(=O)C(N)=O)c(CC)c(Cc3ccccc3)n2n1` [Compound I-18], the IC50 [1] is reported as 10 nM and the melting point is reported as 223 to 225 °C (dec.).

In the case of `CCCc1cc(OCC(=O)O)c2c(C(=O)C(N)=O)c(CC)c(Cc3ccccc3)n2n1` [Compound I-19], the IC50 [1] is reported as 10 nM and the melting point is reported as 231 to 233 °C (dec.).

With `CCc1c(C(=O)C(N)=O)c2c(OCC(=O)O)cc(C(C)C)nn2c1Cc1ccccc1` [Compound I-20] the IC50 [1] was 19 nM and the melting point was 234 to 236 °C (dec.).

For `CCc1c(C(=O)C(N)=O)c2c(OCC(=O)O)cc(-c3ccccc3)nn2c1Cc1ccccc1` [Compound I-21], the IC50 [1] was 6 nM and the melting point was 244 to 246 °C (dec.).

For `CCc1c(C(=O)C(N)=O)c2c(OCC(=O)O)cc(C)nn2c1Cc1ccc(F)cc1` [Compound I-22], the IC50 [1] was 22 nM and the melting point was 238 to 240 °C.

`CCc1c(C(=O)C(N)=O)c2c(OCC(=O)O)cc(-c3ccccc3)nn2c1Cc1ccc(F)cc1` [Compound I-23] showed an IC50 [1] of 7 nM and a melting point of 250 to 252 °C.

In the case of `CCc1c(C(=O)C(N)=O)c2c(OCC(=O)O)cc(C(F)(F)F)nn2c1Cc1ccc(F)cc1` [Compound I-24], the IC50 [1] is reported as 21 nM and the melting point is reported as 248 to 250 °C.

Compound `CCc1c(C(=O)C(N)=O)c2c(OCC(=O)O)cc(-c3ccccc3)nn2c1Cc1ccccc1F` [Compound I-25] has an IC50 [1] of 6 nM and a melting point of 252 to 254 °C.

`COC(=O)COc1cc(C)nn2c(Cc3ccccc3)c(C)c(C(=O)C(N)=O)c12` [Compound I-26] gave an IC50 [1] of 177 nM and a melting point of 163 to 165 °C.

In the case of `CCc1c(C(=O)C(N)=O)c2c(OCC(=O)OC)cc(CSc3ccccc3)nn2c1Cc1ccccc1` [Compound I-27], the IC50 [1] is reported as 126 nM and the melting point is reported as 189 to 192 °C.

Work on `CCc1c(C(=O)C(N)=O)c2c(OCC(=O)OCc3ccccc3)cc(CN3CCCC3)nn2c1Cc1ccccc1` [Compound I-29] yielded an IC50 [1] of 1520 nM and a melting point of 185 to 186 °C.

`CCc1c(C(=O)C(N)=O)c2c(OCC(=O)OCc3ccccc3)cc(CN3CCOCC3)nn2c1Cc1ccccc1` [Compound I-30] showed an IC50 [1] of 4520 nM and a melting point of 183 to 184 °C.

Compound `CCc1c(C(=O)C(N)=O)c2c(OCC(=O)OCc3ccccc3)cc(CN3CCN(C)CC3)nn2c1Cc1ccccc1` [Compound I-31] has an IC50 [1] of 15600 nM and a melting point of 202 to 203 °C.

In the case of `CCc1c(C(=O)C(N)=O)c2c(OCC(=O)OC)cc(-c3ccc(F)cc3)nn2c1Cc1ccc(F)cc1` [Compound I-32], the IC50 [1] is reported as 239 nM and the melting point is reported as 274 to 276 °C (dec.).

With `CCc1c(C(=O)C(N)=O)c2c(OCC(=O)OC)cc(-c3ccc(F)cc3)nn2c1Cc1ccccc1` [Compound I-33] the IC50 [1] was 72 nM and the melting point was 249 to 253 °C (dec.).

In the case of `CCc1c(C(=O)C(N)=O)c2c(OCC(=O)OC)cc(-c3ccc(OC)cc3)nn2c1Cc1ccccc1` [Compound I-34], the IC50 [1] is reported as 58 nM and the melting point is reported as 215 to 217 °C (dec.).

Work on `CCc1c(C(=O)C(N)=O)c2c(OCC(=O)OC)cc(C)nn2c1Cc1ccccc1-c1ccccc1` [Compound I-35] yielded an IC50 [1] of 111 nM and a melting point of 187 to 189 °C.

`CCc1c(C(=O)C(N)=O)c2c(OCC(=O)OC)cc(C)nn2c1Cc1cccc(Oc2ccccc2)c1` [Compound I-36] gave an IC50 [1] of 102 nM and a melting point of 201 to 202 °C.

In the case of `CCc1c(C(=O)C(N)=O)c2c(OCC(=O)OC)cc(C3CCCCC3)nn2c1Cc1ccccc1` [Compound I-37], the IC50 [1] is reported as 212 nM and the melting point is reported as 207 to 209 °C (dec.).

With `CCc1c(C(=O)C(N)=O)c2c(OCC(=O)OC)cc(C3CCCC3)nn2c1Cc1ccccc1` [Compound I-38] the IC50 [1] was 227 nM and the melting point was 160 to 162 °C (dec.).

In the case of `CCc1c(C(=O)C(N)=O)c2c(OCC(=O)OC)cc(-c3ccc4c(c3)OCO4)nn2c1Cc1ccccc1` [Compound I-39], the IC50 [1] is reported as 79 nM and the melting point is reported as 245 to 247 °C (dec.).

Compound `CCc1cc(OCC(=O)OC)c2c(C(=O)C(N)=O)c(C)c(Cc3ccccc3)n2n1` [Compound I-40] has an IC50 [1] of 99 nM and a melting point of 194 to 196 °C.

Compound `CCCc1cc(OCC(=O)OC)c2c(C(=O)C(N)=O)c(C)c(Cc3ccccc3)n2n1` [Compound I-41] has an IC50 [1] of 64 nM and a melting point of 210 to 211 °C.

`COC(=O)COc1cc(Cc2ccccc2)nn2c(Cc3ccccc3)c(C)c(C(=O)C(N)=O)c12` [Compound I-42] gave an IC50 [1] of 26 nM and a melting point of 204 to 206 °C.

For `COC(=O)COc1cc(CSC)nn2c(Cc3ccccc3)c(C)c(C(=O)C(N)=O)c12` [Compound I-43], the IC50 [1] was 154 nM and the melting point was 210 to 211 °C.

In the case of `COCc1cc(OCC(=O)OC)c2c(C(=O)C(N)=O)c(C)c(Cc3ccccc3)n2n1` [Compound I-44], the IC50 [1] is reported as 315 nM and the melting point is reported as 228 to 229 °C (dec.).
